In patent US5985922A, “Amino acid derivatives and active oxygen-resisting agent” (Ajinomoto Co., Inc., priority 1997, dated 1999):

Legend:
lipid peroxidation = assay: Test for an Active Oxygen Resistance (inhibition of lipid peroxidation in mouse brain homogenate); type: biochemical; conditions: whole brain homogenate, C57 black mouse, 20-mM phosphate buffer; 37° C., 30 minutes
Procedure: The test was conducted according to the method described in Method in Enzymol., vol. 52, p. […] The outline of the test method was that a homogenized 20-mM phosphate buffer of the whole brain of a C57 black mouse was prepared, a test substance was added thereto, and an absorbance of the mixture was measured.
Percent peroxidation inhibition (%)--
A1 : Absorbance in the addition of the test compound
A2 : Absorbance before the addition of the test compound
A3 : Absorbance when the test compound is not added, nor is the heating at 37° C. for 30 minutes conducted.

[1] = Test for a Solubility (oil solvents, 1% by weight); type: physicochemical
Procedure: The solubility in the solvent shown in Table 2 when the concentration was 1% by weight was evaluated.

Solubility in liquid paraffin [1] | Solubility in olive oil [1] | SMILES | Percent inhibition of lipid peroxidation (lipid peroxidation)
 |  | O=C(O)CC(O)(CC(=O)O)C(=O)O [Citric acid, reference compound] | -15%
insoluble | insoluble | C[C@H](NCc1ccccc1O)C(=O)O [N-(2-hydroxybenzyl)-L-alanine, reference compound] | 6%
insoluble | insoluble | O=C(O)CNCc1ccccc1O [N-(2-hydroxybenzyl)-L-glycine, reference compound] | 
insoluble | insoluble | O=C(O)[C@H](Cc1ccccc1)NCc1ccccc1O [N-(2-hydroxybenzyl)-L-phenylalanine, reference compound] | 
soluble | soluble | CCCCCCCCCCCCOC(=O)[C@H](C)NCc1ccccc1O [Synthesis Example 1, N-(2-hydroxybenzyl)-L-alanine lauryl ester] | 39%
soluble | soluble | CCCCCCCCCCCCCCCCCCOC(=O)[C@H](C)NCc1ccccc1O [Synthesis Example 2, N-(2-hydroxybenzyl)-L-alanine stearyl ester] | 16%
soluble | soluble | CCCCCCCCCCCCOC(=O)CNCc1ccccc1O [Synthesis Example 3, N-(2-hydroxybenzyl)glycine lauryl ester] | 
soluble | soluble | CCCCCCCCCCCCOC(=O)[C@H](Cc1ccccc1)NCc1ccccc1O [Synthesis Example 4, N-(2-hydroxybenzyl)-L-phenylalanine lauryl ester] | 
gelling | soluble | CCCCCCCCCCCCNC(=O)[C@H](C)NCc1ccccc1O [Synthesis Example 5, N-(2-hydroxybenzyl)-L-alanine laurylamide] | 80%
gelling | soluble | CCCCCCCCCCCCCCCCCCNC(=O)[C@H](C)NCc1ccccc1O [Synthesis Example 6, N-(2-hydroxybenzyl)-L-alanine stearylamide] | 17%
gelling | soluble | CCCCCCCCCCCCNC(=O)CNCc1ccccc1O [Synthesis Example 7, N-(2-hydroxybenzyl)glycine laurylamide] | 
gelling | soluble | CCCCCCCCCCCCNC(=O)[C@H](Cc1ccccc1)NCc1ccccc1O [Synthesis Example 8, N-(2-hydroxybenzyl)phenylalanine laurylamide] | 
 |  | O=C1O[C@H]([C@@H](O)CO)C(O)=C1O [Vitamin C, reference compound] | -23%
